In one assay the target is T1, α1A receptor (Rattus norvegicus, UniProt P43140).
T1 construct: the α1A receptors are present on a membrane of a rat salivary gland; from tissue; host or cells: rat salivary gland membrane homogenate
T1 sequence (P43140 1-466): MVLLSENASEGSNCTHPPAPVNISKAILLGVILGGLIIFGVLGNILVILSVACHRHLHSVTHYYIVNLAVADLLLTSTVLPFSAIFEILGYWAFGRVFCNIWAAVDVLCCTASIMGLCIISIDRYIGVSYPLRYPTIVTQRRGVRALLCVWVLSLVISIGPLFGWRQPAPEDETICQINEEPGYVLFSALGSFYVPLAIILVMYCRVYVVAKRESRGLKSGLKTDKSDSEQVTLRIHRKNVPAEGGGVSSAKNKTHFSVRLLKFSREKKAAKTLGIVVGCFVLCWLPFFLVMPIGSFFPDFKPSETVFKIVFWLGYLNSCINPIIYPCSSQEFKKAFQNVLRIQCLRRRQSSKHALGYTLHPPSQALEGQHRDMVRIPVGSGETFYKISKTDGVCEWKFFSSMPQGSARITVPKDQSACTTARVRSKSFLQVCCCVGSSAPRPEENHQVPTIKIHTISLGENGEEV
Description: α1 adrenergic receptor binding test ([3H]prazosin displacement, rat salivary gland membrane homogenate). The settings on record: [3H]prazosin 0.06 nM as ligand; membrane homogenate of rat salivary gland; 22° C., 60 minutes; specimens 0.02-20 μM. The procedure: The compound 19a synthesized in Examples above was weighed, to which 100% dimethylsulfoxide (DMSO) was added so as to prepare a solution at 10-fold of the final concentration. The solution was diluted with an assay buffer, to thereby prepare four types of specimens with different concentrations (0.02 μM, 0.2 μM, 2 μM, 20 μM). In addition, with respect to each of the compound 19b, the racemic mixture of the compounds 19a and 19b, and the racemic mixture of the compounds 20a and 20b, likewise, four types of specimens were prepared (see Mitchel, A. D. et al., (1989) Brt. J. Pharmacol., 98: 883-889).
Next, as the α1 adrenergic receptor, an α1A receptor (one of subtypes of the α1 adrenergic receptor) was used, and a binding ability to the α1A receptor was examined.
It has been known that the α1A receptors are present on a membrane of a rat salivary gland. To an assay buffer (250 μL) containing a membrane homogenate of a rat salivary gland (150 μg in terms of protein amount) were added the above-mentioned specimen and [^3H]prazosin (0.06 nM) as ligand, to thereby prepare a reaction liquid, which was then incubated at 22° C. for 60 minutes. After the incubation, the reaction liquid was subjected to suction filtration using a glass fiber filter (GF/B, manufactured by Packard) which had been washed with 0.3% PEI (polyethyleneimine), to terminate reaction. The glass fiber filter was washed with 50 mM Tris-HCl cooled with ice, washing being repeated several times. The glass fiber filter was dried, a scintillation cocktail (Microscint 0, manufactured by Packard) was added thereto, and residual radioactivity on the filter was measured using a liquid scintillation counter (Topcount, manufactured by Packard). An amount of specific binding of [^3H]prazosin was obtained by subtracting an amount of non-specific binding in the presence of phentolamine (10 μM) from a total binding amount of [^3H]prazosin.

The next assay has as its system α1 adrenergic receptor. Briefly: Rat tail artery constriction inhibition test. The settings on record: phenylephrine 10 μM, compound 1 μM, 100 μM in organ bath, other receptors blocked with antagonists. On the procedure:
Since the α1 adrenergic receptor antagonist has been known to have a vasoconstriction inhibition effect, the constriction inhibition effect of the compounds was examined using rat tail artery.
The compound 19a synthesized in Examples above was weighed, to which 100% dimethylsulfoxide (DMSO) was added so as to prepare a sample solution (stock solution) (concentration of the compound 19a: 100 mM). In addition, the compound 19b, the racemic mixture of the compounds 19a and 19b, and the racemic mixture of the compounds 20a and 20b were prepared likewise.
A tissue (rat tail artery) with an exposed endothelium was suspended in an organ bath filled with 20 mL of saline (NaCl: 118.0 mM, KCl: 4.7 mM, MgSO4: 1.2 mM, CaCl2: 2.5 mM, NaHCO3: 25 mM, glucose: 11.0 mM) (pH7.4) at 37° C., into which 95% oxygen/5% carbon dioxide had been fed. In the rat tail artery tissue, the α2 adrenergic receptor, β adrenergic receptor, histamine H1 receptor, muscarine receptor, and 5-HT2 receptor had been expressed like the α1 adrenergic receptor had, and in order to block the actions of these receptors, antagonistic agents (antagonists) for the respective receptor, i.e., yohimbine (1 μM), propranol (1 μM), pyrilamine (1 μM), atropine (1 μM), and methysergide (1 μM), were added.
In order to measure the contraction of the tissue caused by an action of the α1 adrenergic receptor, the tissue was connected to a force transducer which outputs a tension of the tissue as data. The tension in a static state was adjusted to become 1 g, and was maintained for 60 minutes (during that time period, the tissue was repeatedly washed with saline to readjust the tension). To the tissue was added 10 μM of a reference agonist (phenylephrine 1.0E-05M), and it was confirmed that the tissue responded in a normal manner. At the same time, there was recorded the tension (g) obtained by the contraction of the tissue caused by the action of the reference agonist. After confirming that the tissue responded in a normal manner, the reference agonist was washed out once, and the tissue was allowed to stand still for up to 15 minutes until the response returns to a static state (tension: 1 g).
After the response returned to the static state (tension: 1 g), the reference agonist was added so that the contraction rate of the tissue becomes 100%.
Next, the sample solution or a diluted solution thereof was added in such a manner that each of the concentrations of the compound 19a, the compound 19b, the racemic mixture of the compounds 19a and 19b, and the racemic mixture of the compounds 20a and 20b in the organ bath was increased in three stages (1 μM, 10 μM, 100 μM). Every time the concentration was increased, the tension was measured, and the contraction rate was calculated using the following equation. […]

The structures appear in SMILES notation. pIC50: −log10 of the molar value.

Turning to `COC(=O)C1c2cc(C=CC(=O)NCCCCNC(=N)N)ccc2OC1c1ccc(O)cc1` (racemic) [racemic mixture of the compounds 19a and 19b, methyl-5-(1E)-[[4-(aminoiminomethyl)amino]butylamino]-3-oxo-1-propenyl]-2,3-dihydro-2-(4-hydroxyphenyl)-3-benzofurancarboxylate], the pIC50 (usually −log10 of the IC50, conventionally taken in molar units) at α1A receptor was 5.62. For the same molecule, the “effect on contraction of rat tail artery caused by reference agonist (phenylephrine)” value (“effect on contraction” for short) in the assay on α1 adrenergic receptor was “suppressed a response in the reference agonist (phenylephrine) in a dosage-dependent manner”.

In turn, `N=C(N)NCCCCNC(=O)/C=C/c1ccc2c(c1)C(C(=O)O)C(c1ccc(O)cc1)O2` (racemic) [racemic mixture of the compounds 20a and 20b] had a pIC50 on α1A receptor of 5.70. Besides, the “effect on contraction” value in the assay with α1 adrenergic receptor is on record as “suppressed a response in the reference agonist (phenylephrine) in a dosage-dependent manner”.

`COC(=O)[C@@H]1c2cc(/C=C/C(=O)NCCCCNC(=N)N)ccc2O[C@H]1c1ccc(O)cc1` [compound 19a] had a pIC50 on α1A receptor of 5.69. Also, in the assay with α1 adrenergic receptor, the “effect on contraction” value is reported as “suppressed a response in the reference agonist (phenylephrine) in a dosage-dependent manner”.

The molecule `COC(=O)[C@H]1c2cc(/C=C/C(=O)NCCCCNC(=N)N)ccc2O[C@@H]1c1ccc(O)cc1` [compound 19b] gave a pIC50 on α1A receptor of 6.21. Also, in the assay with α1 adrenergic receptor, the “effect on contraction” value was “suppressed a response in the reference agonist (phenylephrine) in a dosage-dependent manner”.

These data come from patent US8110601B2, “Compound, α1 adrenergic receptor antagonistic agent, and composition” (Suntory Holdings Limited, priority 2007, dated 2012).
